Measurements from patent publication US11351268B2, “FGF21 C-terminal peptide optimization” (INDIANA UNIVERSITY RESEARCH AND TECHNOLOGY CORPORATION, priority 2016, dated 2022).
No end group written: not given here.

Experiments:
Klotho β (KLB) = biological target: T1, Klotho β (KLB) (Homo sapiens, UniProt Q86Z14); assay: cell-based; type: cell-based; settings: for Emax: Table 1, native sequence = 100% response, read-out: % max activity
T1 construct: expressed in transfected cells; host or cells: HEK 293T (ATCC), pooled Zeocin-selected cells stably expressing hKLB from pcDNA3.1(+)
T1 sequence (Q86Z14 1-1044): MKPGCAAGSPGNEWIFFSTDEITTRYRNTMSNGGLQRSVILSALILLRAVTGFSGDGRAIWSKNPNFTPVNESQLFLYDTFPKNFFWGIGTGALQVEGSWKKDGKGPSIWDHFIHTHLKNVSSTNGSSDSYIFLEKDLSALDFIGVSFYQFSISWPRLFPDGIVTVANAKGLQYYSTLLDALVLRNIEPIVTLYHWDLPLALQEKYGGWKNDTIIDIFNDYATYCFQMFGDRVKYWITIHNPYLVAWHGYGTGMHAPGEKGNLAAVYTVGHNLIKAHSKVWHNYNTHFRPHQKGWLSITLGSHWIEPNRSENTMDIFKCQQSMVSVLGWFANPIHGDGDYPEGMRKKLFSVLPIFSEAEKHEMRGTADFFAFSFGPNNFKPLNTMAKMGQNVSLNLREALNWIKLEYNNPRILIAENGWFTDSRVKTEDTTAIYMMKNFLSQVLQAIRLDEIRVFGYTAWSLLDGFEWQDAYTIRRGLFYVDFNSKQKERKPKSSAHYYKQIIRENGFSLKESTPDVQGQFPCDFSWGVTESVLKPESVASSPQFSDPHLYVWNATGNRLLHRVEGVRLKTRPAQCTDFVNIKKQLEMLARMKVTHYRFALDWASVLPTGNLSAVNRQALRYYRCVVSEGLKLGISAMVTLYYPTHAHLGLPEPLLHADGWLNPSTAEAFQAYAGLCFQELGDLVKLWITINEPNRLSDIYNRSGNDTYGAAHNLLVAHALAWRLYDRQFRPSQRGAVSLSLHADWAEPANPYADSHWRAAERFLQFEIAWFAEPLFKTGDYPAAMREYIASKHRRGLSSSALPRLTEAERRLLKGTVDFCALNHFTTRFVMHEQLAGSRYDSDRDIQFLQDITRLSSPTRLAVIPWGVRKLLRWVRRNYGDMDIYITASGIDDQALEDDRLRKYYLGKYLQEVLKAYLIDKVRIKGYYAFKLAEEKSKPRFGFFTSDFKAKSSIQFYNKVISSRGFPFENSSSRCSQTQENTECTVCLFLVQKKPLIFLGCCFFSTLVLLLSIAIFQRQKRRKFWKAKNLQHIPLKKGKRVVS
Protocol: (§1) Cells were cultured in 10% Fetal Bovine Serum containing DMEM High glucose GLUTAMAX® at 37 C, 95% humidity, 5% CO2. For generating the cell line with stable expression, human KLB gene was synthesized by Genscript and subcloned into pcDNA3.1(+) with ZEOCIN® resistance vector (INVITROGEN®) by NheI and NotI restriction enzyme sites. HEK 293T cells were obtained from ATCC and were transiently transfected at 80% confluency using Lipofectamine 3000 (Invitrogen). Selection for KLB-expressing cells was initiated 48 hours post-transfection in the growth media containing 100 μg/ml of ZEOCIN® (Gibco) and continued for 4 weeks with fresh media added every third day. Human KLB expression in pooled cells was confirmed by Western blot and a functional FGF21 MAPK phosphorylation assay.
(§2) 293 HEK cells expressing hKLB were plated to 90% confluency in 96 well plates coated with poly-D-Lysine. Cells were serum starved for three hours in 0.1% BSA containing media prior to stimulation with protein and/or an antagonist peptide for ten minutes at 37° C. The cell lysate was used for the detection of phospho-Erk1/2 levels by AlphaSureFire kit using the prescribed protocol. The degree of biochemical activation was recorded and analyzed using Origin software by logistic curve fitting. Tests at each concentration were done in triplicates, and the standard deviation is as shown in the graphs. The calculation of maximal activities was done keeping the FGF21 157-181 or FGF19 169-194 peptide activity as standard. The difference between the Erk1/2 phosphorylation signal for the highest (10 μM) and the lowest (0 μM) tested dose for native peptide was considered as 100% and accordingly all the other values were assigned.

FGF21 receptor = assay: Erk1/2 phosphorylation assay: agonist activity in 293T HEK hKLB cells; type: cell-based, human; settings: for EC50: read-out: EC-50; for IC50: full length FGF21 analogs, tested in triplicate
Protocol: as §1, §2

[1] = Table 1, alanine scan of FGF21 25mer, antagonism of native FGF21 response
[2] = Table 2(A), FGF21 157-181 alanine mutants, ≥95% maximal activity
[3] = Table 5, FGF19/FGF21 chimeric peptides
[4] = Table 6, derivatives of SEQ ID NO: 180
[5] = FIGS. 9A/9B, full length proteins, Erk1/2 phosphorylation

Molecule: PPDVGSSDPLAMVGPSQGRSPSYAS-NH2 (C-terminus assumed) [Peptide A11, PPDVGSSDPLAMVGPSQGRSPSYAS]
- IC50 (Klotho β (KLB); [1]): 102 nM
- Emax (Klotho β (KLB)): 98%
- IC50 (Klotho β (KLB); [2]): 150 nM

Molecule: PPDVGSSDPLSMAGPSQGRSPSYAS-NH2 (C-terminus assumed) [Peptide A13, PPDVGSSDPLSMAGPSQGRSPSYAS]
- Emax (Klotho β (KLB)): 87.9%

Molecule: PPDVGSSDPLSMVAPSQGRSPSYAS-NH2 (C-terminus assumed) [Peptide A14, PPDVGSSDPLSMVAPSQGRSPSYAS]
- % max activity (Klotho β (KLB)): 97.7%
- IC50 (Klotho β (KLB); [2]): 130 nM

Molecule: PPDVGSSDPLSMVGASQGRSPSYAS-NH2 (C-terminus assumed) [Peptide A15, PPDVGSSDPLSMVGASQGRSPSYAS]
- Emax (Klotho β (KLB)): 93.9%
- IC50 (Klotho β (KLB); [2]): 120 nM

Molecule: PPDVGSSDPLSMVGPAQGRSPSYAS-NH2 (C-terminus assumed) [Peptide A16, PPDVGSSDPLSMVGPAQGRSPSYAS]
- IC50 (Klotho β (KLB); [1]): 120 nM
- Emax (Klotho β (KLB)): 101%

Molecule: PPDVGSSDPLSMVGPSAGRSPSYAS-NH2 (C-terminus assumed) [Peptide A17, PPDVGSSDPLSMVGPSAGRSPSYAS]
- % max activity (Klotho β (KLB)): 99.7%
- IC50 (Klotho β (KLB); [1]): 139 nM
- IC50 (Klotho β (KLB); [2]): 130 nM

Molecule: PPDVGSSDPLSMVGPSQARSPSYAS-NH2 (C-terminus assumed) [Peptide A18, PPDVGSSDPLSMVGPSQARSPSYAS]
- % max activity (Klotho β (KLB)): 102.9%
- IC50 (Klotho β (KLB); [1]): 139 nM
- IC50 (Klotho β (KLB); [2]): 150 nM

Molecule: PPDVGSSDPLSMVGPSQGASPSYAS-NH2 (C-terminus assumed) [Peptide A19, PPDVGSSDPLSMVGPSQGASPSYAS]
- IC50 (Klotho β (KLB); [1]): 102 nM
- Emax (Klotho β (KLB)): 100%

Molecule: PPDVGSSDPLSMVGPSQGRAPSYAS-NH2 (C-terminus assumed) [Peptide A20, PPDVGSSDPLSMVGPSQGRAPSYAS]
- Emax (Klotho β (KLB)): 73.5%

Molecule: PPDVGSSDPLSMVGPSQGRSASYAS-NH2 (C-terminus assumed) [Peptide A21, PPDVGSSDPLSMVGPSQGRSASYAS]
- Emax (Klotho β (KLB)): 70.5%

Molecule: PPDVGSSDPLSMVGPSQGRSPAYAS-NH2 (C-terminus assumed) [Peptide A22, PPDVGSSDPLSMVGPSQGRSPAYAS]
- Emax (Klotho β (KLB)): 78.5%

Molecule: PPDVGSSDPLSMVGPSQGRSPSAAS-NH2 (C-terminus assumed) [Peptide A23, PPDVGSSDPLSMVGPSQGRSPSAAS]
- % max activity (Klotho β (KLB)): 73.6%

Molecule: PPDVGSSDPLSMVGPSQGRSPSYAA-NH2 (C-terminus assumed) [Peptide A25, PPDVGSSDPLSMVGPSQGRSPSYAA]
- % max activity (Klotho β (KLB)): 99.0%

Molecule: PPDVGSSDPLSMVGPSQGRSPSYAS-NH2 [Peptide C25, PPDVGSSDPLSMVGPSQGRSPSYAS, reference compound]
- % max activity (Klotho β (KLB)): 100.0%
- IC50 (Klotho β (KLB); FIG. 8B, FGF21 and FGF19 C-terminal peptides): 40 nM
- IC50 (Klotho β (KLB); [3]): 116 ± 4 nM

Molecule: PPDVGSSDPLSMVTGLEAVRSPSFEA-NH2 (C-terminus assumed) [Peptide 0435]
- IC50 (Klotho β (KLB); [3]): 65.1 ± 4.8 nM

Molecule: PPDVLSMDPFGLVGPSQGRSPSFEA-NH2 (C-terminus assumed) [Peptide 0481]
- IC50 (Klotho β (KLB); [4]): 2.6 ± 0.8 nM

Molecule: PPDVSSMDPFGLVGPSQGRSPSFEA-NH2 (C-terminus assumed) [Peptide 0482]
- IC50 (Klotho β (KLB); [4]): 3 ± 1.3 nM

B1: FGF21 D164A: full length FGF21 with alanine at position 164 (protein)
chain: HPIPDSSPLLQFGGQVRQRYLYTDDAQQTEAHLEIREDGTVGGAADQSPESLLQLKALKPGVIQILGVKTSRFLCQRPDGALYGSLHFDPEACSFRELLLEDGYNVYQSEAHGLPLHLPGNKSPHRDPAPRGPARFLPLPGLPPALPEPPGILAPQPPDVGSSAPLSMVGPSQGRSPSYAS
- EC-50 (FGF21 receptor; [5]): inactive

B2: FGF21 P171A: full length FGF21 with alanine at position 171 (protein)
chain: HPIPDSSPLLQFGGQVRQRYLYTDDAQQTEAHLEIREDGTVGGAADQSPESLLQLKALKPGVIQILGVKTSRFLCQRPDGALYGSLHFDPEACSFRELLLEDGYNVYQSEAHGLPLHLPGNKSPHRDPAPRGPARFLPLPGLPPALPEPPGILAPQPPDVGSSDPLSMVGASQGRSPSYAS
- EC50 (FGF21 receptor; [5]): 4.5 nM

B3: FGF21-19 K194A: chimeric analog: core of FGF21 1-156 and an extension of the FGF19 169-194 K194A peptide (protein)
chain: HPIPDSSPLLQFGGQVRQRYLYTDDAQQTEAHLEIREDGTVGGAADQSPESLLQLKALKPGVIQILGVKTSRFLCQRPDGALYGSLHFDPEACSFRELLLEDGYNVYQSEAHGLPLHLPGNKSPHRDPAPRGPARFLPLPGLPPALPEPPGILAPQPLETDSMDPFGLVTGLEAVRSPSFEA
- % maximal activity (FGF21 receptor; [5]): 84%
- EC50 (FGF21 receptor; [5]): 0.5 nM
- fold more potent than native FGF21 (FGF21 receptor; agonist activity of chimeric analog): approximately 5 fold

B4: FGF21 481K: analog of FGF21 481A where the C-terminal alanine is replaced with a lysine (protein)
chain: HPIPDSSPLLQFGGQVRQRYLYTDDAQQTECHLEIREDGTVGCAADQSPESLLQLKALKPGVIQILGVKTSRFLCQRPDGALYGSLHFDPEACSFREDLKEDGYNVYQSEAHGLPLHLPGDKSPHRKPAPRGPARFLPLPGLPPALPEPPGILAPQPPDVLSMDPFGLVGPSQGRSPSFEK
- IC50 (FGF21 receptor): 0.56 ± 0.06 nM

B5: FGF21 482A: modified FGF21 N-terminus fused to peptide 0482 (protein, listed as Homo sapiens)
chain: HPIPDSSPLLQFGGQVRQRYLYTDDAQQTECHLEIREDGTVGCAADQSPESLLQLKALKPGVIQILGVKTSRFLCQRPDGALYGSLHFDPEACSFREDLKEDGYNVYQSEAHGLPLHLPGDKSPHRKPAPRGPARFLPLPGLPPALPEPPGILAPQPPDVSSMDPFGLVGPSQGRSPSFEA
- IC50 (FGF21 receptor): 0.22 ± 0.03 nM

B6: FGF21 481A: modified FGF21 N-terminus fused to peptide 0481 (protein, listed as Homo sapiens)
chain: HPIPDSSPLLQFGGQVRQRYLYTDDAQQTECHLEIREDGTVGCAADQSPESLLQLKALKPGVIQILGVKTSRFLCQRPDGALYGSLHFDPEACSFREDLKEDGYNVYQSEAHGLPLHLPGDKSPHRKPAPRGPARFLPLPGLPPALPEPPGILAPQPPDVLSMDPFGLVGPSQGRSPSFEA
- IC50 (FGF21 receptor): 0.19 ± 0.08 nM

B7: FGF21 482K: analog of FGF21 482A where the C-terminal alanine is replaced with a lysine (protein)
chain: HPIPDSSPLLQFGGQVRQRYLYTDDAQQTECHLEIREDGTVGCAADQSPESLLQLKALKPGVIQILGVKTSRFLCQRPDGALYGSLHFDPEACSFREDLKEDGYNVYQSEAHGLPLHLPGDKSPHRKPAPRGPARFLPLPGLPPALPEPPGILAPQPPDVSSMDPFGLVGPSQGRSPSFEK
- IC50 (FGF21 receptor): 1.81 ± 0.18 nM
